In PubChem BioAssay AID248 (DTP/NCI, 2004):
Where “and” joins values, the source holds several entries; their conditions need not be identical. Equal entries are not always repeated. Toxic doses and inconclusive results are not listed. Rule as the data show it: active = T/C of 150% or more; inactive = T/C below 125%.

System: L1210 leukemia ip in BDF1 mice, survival T/C
Test: NCI In Vivo Anticancer Drug Screen. Data for tumor model L1210 Leukemia (intraperitoneal) in B6D2F1 (BDF1) mice
Conditions: endpoint: mean survival time, higher = longer survival
How it was run: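 Transplantable tumor model; survival measured in treated vs vehicle control mice. Value = treated/control.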

[1] = dose: 25.0 mg/kg/injection, schedule: Q04DX003 (ip), vehicle: saline
[2] = dose: 50.0 mg/kg/injection, schedule: Q01DX001 (ip), vehicle: saline
[3] = dose: 50.0 mg/kg/injection, schedule: Q04DX003 (ip), vehicle: saline
[4] = dose: 100.0 mg/kg/injection, schedule: Q01DX001 (ip), vehicle: saline
[5] = dose: 100.0 mg/kg/injection, schedule: Q04DX003 (ip), vehicle: saline
[6] = dose: 100.0 mg/kg/injection, schedule: Q04DX003 (ip), vehicle: Klucel (hydroxypropylcellulose) (HPC)
[7] = dose: 200.0 mg/kg/injection, schedule: Q04DX003 (ip), vehicle: Klucel (hydroxypropylcellulose) (HPC)
[8] = dose: 400.0 mg/kg/injection, schedule: Q04DX003 (ip), vehicle: Klucel (hydroxypropylcellulose) (HPC)
[9] = dose: 25.0 mg/kg/injection, schedule: Q04DX003 (ip), vehicle: Klucel (hydroxypropylcellulose) (HPC)
[10] = dose: 50.0 mg/kg/injection, schedule: Q04DX003 (ip), vehicle: Klucel (hydroxypropylcellulose) (HPC)
[11] = dose: 25.0 mg/kg/injection, schedule: Q01DX009 (ip), vehicle: Klucel (hydroxypropylcellulose) (HPC)
[12] = dose: 50.0 mg/kg/injection, schedule: Q01DX009 (ip), vehicle: Klucel (hydroxypropylcellulose) (HPC)
[13] = dose: 100.0 mg/kg/injection, schedule: Q01DX009 (ip), vehicle: Klucel (hydroxypropylcellulose) (HPC)
[14] = dose: 100.0 mg/kg/injection, schedule: Q04DX003 (ip), vehicle: saline with Tween-80
[15] = dose: 200.0 mg/kg/injection, schedule: Q01DX009 (ip), vehicle: saline with Tween-80
[16] = dose: 200.0 mg/kg/injection, schedule: Q04DX003 (ip), vehicle: saline with Tween-80
[17] = dose: 400.0 mg/kg/injection, schedule: Q01DX009 (ip), vehicle: saline with Tween-80
[18] = dose: 400.0 mg/kg/injection, schedule: Q04DX003 (ip), vehicle: saline with Tween-80
[19] = dose: 100.0 mg/kg/injection, schedule: Q01DX009 (ip), vehicle: saline with Tween-80
[20] = dose: 200.0 mg/kg/injection, schedule: Q01DX001 (ip), vehicle: saline
[21] = dose: 400.0 mg/kg/injection, schedule: Q01DX001 (ip), vehicle: saline
[22] = dose: 200.0 mg/kg/injection, schedule: Q01DX009 (ip), vehicle: Klucel (hydroxypropylcellulose) (HPC)
[23] = dose: 400.0 mg/kg/injection, schedule: Q01DX009 (ip), vehicle: Klucel (hydroxypropylcellulose) (HPC)
[24] = dose: 100.0 mg/kg/injection, schedule: Q04DX002 (ip), vehicle: Klucel (hydroxypropylcellulose) (HPC)

Measured: T/C

C#CC[N+](CC)(CC)CC
inactive: dose: 25.0 mg/kg/injection, schedule: Q01DX001 (ip), vehicle: saline 100 % of control | dose: 25.0 mg/kg/injection, schedule: Q01DX009 (ip), vehicle: saline 106 % of control and 89 % of control | dose: 25.0 mg/kg/injection, schedule: Q04DX002 (ip), vehicle: saline 95 % of control and 97 % of control | [1] 99 % of control | [2] 100 % of control | dose: 50.0 mg/kg/injection, schedule: Q01DX009 (ip), vehicle: saline 98 % of control and 106 % of control | dose: 50.0 mg/kg/injection, schedule: Q04DX002 (ip), vehicle: saline 107 % of control and 122 % of control | [3] 102 % of control | [4] 105 % of control and 110 % of control | [5] 103 % of control

c1ccc(-c2cc3ccccc3[nH]2)nc1
inactive: [6] 95 % of control | [7] 93 % of control | [8] 93 % of control

NC(=O)C(=O)OCc1ccccc1
inactive: dose: 100.0 mg/kg/injection, schedule: Q01DX001 (ip), vehicle: steriod suspending solution 105 % of control | dose: 200.0 mg/kg/injection, schedule: Q01DX001 (ip), vehicle: steriod suspending solution 97 % of control | dose: 400.0 mg/kg/injection, schedule: Q01DX001 (ip), vehicle: steriod suspending solution 94 % of control

Brc1ccc(C2=CSC3=NCCN23)cc1
inactive: [9] 96 % of control | [10] 96 % of control

CCN(CC)CCOc1ccccc1-c1nc2ccccc2s1
inactive: [11] 104 % of control | [12] 98 % of control | [13] 96 % of control and 108 % of control

CC(C)(C(=O)[O-])C(=O)O.[Co+3].[NH2-].[NH2-].[NH2-].[NH2-].[NH2-].[O-][Cl+3]([O-])([O-])O
inactive: dose: 100.0 mg/kg/injection, schedule: Q04DX002 (ip), vehicle: saline 92 % of control | dose: 200.0 mg/kg/injection, schedule: Q04DX002 (ip), vehicle: saline 95 % of control | dose: 400.0 mg/kg/injection, schedule: Q04DX002 (ip), vehicle: saline 106 % of control

O=[N+]([O-])c1cccc2c1CCCC2
inactive: dose: 12.5 mg/kg/injection, schedule: Q01DX009 (ip), vehicle: saline with Tween-80 98 % of control | dose: 25.0 mg/kg/injection, schedule: Q01DX009 (ip), vehicle: saline with Tween-80 93 % of control | dose: 50.0 mg/kg/injection, schedule: Q01DX009 (ip), vehicle: saline with Tween-80 98 % of control | [14] 107 % of control | [15] 87 % of control | [16] 105 % of control | [17] 105 % of control | [18] 96 % of control

O=C(NC1N=C2OC(COC(=O)c3ccccc3)C(OC(=O)c3ccccc3)C2O1)c1ccccc1 (stereo not drawn)
inactive: [19] 108 % of control | [15] 93 % of control | [17] 98 % of control

O=C(Nc1ccc(Cl)cc1C(F)(F)F)OCCOc1ccc(-c2ccccc2)cc1
inactive: [19] 98 % of control | [15] 96 % of control | [17] 96 % of control

C=CCN(CC=C)C(=O)c1cc(Cl)ccc1Cl
inactive: dose: 100.0 mg/kg/injection, schedule: Q04DX002 (ip), vehicle: saline with Tween-80 97 % of control | dose: 200.0 mg/kg/injection, schedule: Q04DX002 (ip), vehicle: saline with Tween-80 103 % of control | dose: 400.0 mg/kg/injection, schedule: Q04DX002 (ip), vehicle: saline with Tween-80 110 % of control

Cc1c(C)c(C)c(Br)c(C)c1C
inactive: [2] 108 % of control | [4] 108 % of control | [20] 108 % of control | [21] 108 % of control

N#CCNC(=O)c1ccccc1
inactive: dose: 12.5 mg/kg/injection, schedule: Q01DX009 (ip), vehicle: Klucel (hydroxypropylcellulose) (HPC) 101 % of control | [11] 104 % of control | [9] 98 % of control | [12] 102 % of control | [10] 98 % of control

COc1cc(CNC(=O)/C(C)=C/Cl)ccc1O
inactive: dose: 12.5 mg/kg/injection, schedule: Q04DX003 (ip), vehicle: saline with Tween-80 96 % of control | dose: 25.0 mg/kg/injection, schedule: Q04DX003 (ip), vehicle: saline with Tween-80 96 % of control | dose: 50.0 mg/kg/injection, schedule: Q04DX003 (ip), vehicle: saline with Tween-80 103 % of control

O=C(/C=C/C(=O)Oc1c(Cl)cc(Cl)cc1Cl)Oc1c(Cl)cc(Cl)cc1Cl
inactive: [13] 106 % of control | [6] 96 % of control | [14] 96 % of control | [22] 104 % of control | [7] 105 % of control | [16] 93 % of control | [23] 96 % of control | [8] 98 % of control | [18] 91 % of control

CCOC(OCC)c1cc(=O)[nH]c(NC(C)=O)n1
inactive: [13] 101 % of control | [22] 101 % of control | [23] 106 % of control

O=C(O)CC1(C(=O)O)CC2(Cl)C(Cl)=C(Cl)C1(Cl)C2(Cl)Cl (stereo not drawn)
inactive: [14] 107 % of control | [16] 112 % of control

CCCN(CCC)S(=O)(=O)c1ccc(NC(=O)OC(c2ccccc2)(c2ccccc2)c2ccccc2)cc1
inactive: [4] 100 % of control | [20] 97 % of control | [21] 94 % of control

CCN(CC)Cc1ccccc1COC(=O)c1ccc(C)cc1
inactive: dose: 25.0 mg/kg/injection, schedule: Q04DX002 (ip), vehicle: Klucel (hydroxypropylcellulose) (HPC) 97 % of control | dose: 50.0 mg/kg/injection, schedule: Q04DX002 (ip), vehicle: Klucel (hydroxypropylcellulose) (HPC) 97 % of control | [24] 94 % of control

COC1=NS(=O)(=O)C(C)C(C)(C)O1 (stereo not drawn)
inactive: [24] 100 % of control | dose: 200.0 mg/kg/injection, schedule: Q04DX002 (ip), vehicle: Klucel (hydroxypropylcellulose) (HPC) 120 % of control | dose: 400.0 mg/kg/injection, schedule: Q04DX002 (ip), vehicle: Klucel (hydroxypropylcellulose) (HPC) 100 % of control

C=CC[N+]1=C(C)C(C)(C)c2ccccc21
inactive: [14] 95 % of control | [16] 96 % of control

N=C(N)N=Nc1cc(O)c(NN=C(N)N)cc1O
inactive: dose: 7.5 mg/kg/injection, schedule: Q01DX Z (oral), vehicle: saline 95 % of control | dose: 15.0 mg/kg/injection, schedule: Q01DX Z (ip), vehicle: saline 98 % of control | dose: 15.0 mg/kg/injection, schedule: Q01DX Z (oral), vehicle: saline 96 % of control | dose: 30.0 mg/kg/injection, schedule: Q01DX Z (oral), vehicle: saline 98 % of control

CCN(CC)CCOc1cc(C)cc2ccccc12
inactive: dose: 12.5 mg/kg/injection, schedule: Q04DX003 (ip), vehicle: saline 87 % of control | [1] 98 % of control | [3] 101 % of control | [5] 104 % of control

CCCCCC(C(C)=O)(C1=NC(C)(C)CC(C)O1)c1ccccc1 (stereo not drawn)
inactive: dose: 100.0 mg/kg/injection, schedule: Q04DX003 (ip), vehicle: saline sonified 103 % of control | dose: 200.0 mg/kg/injection, schedule: Q04DX003 (ip), vehicle: saline sonified 120 % of control | dose: 400.0 mg/kg/injection, schedule: Q04DX003 (ip), vehicle: saline sonified 111 % of control

O=c1oc2ccc(Cl)cc2c2c1OC(c1ccccc1)CN2 (stereo not drawn)
inactive: dose: 100.0 mg/kg/injection, schedule: Q01DX001 (ip), vehicle: Klucel (hydroxypropylcellulose) (HPC) 96 % of control | dose: 200.0 mg/kg/injection, schedule: Q01DX001 (ip), vehicle: Klucel (hydroxypropylcellulose) (HPC) 90 % of control | dose: 400.0 mg/kg/injection, schedule: Q01DX001 (ip), vehicle: Klucel (hydroxypropylcellulose) (HPC) 91 % of control

CCCCCCCCCCCCCCCC[N+](C)(CCO)Cc1ccccc1 (stereo not drawn)
inactive: dose: 12.5 mg/kg/injection, schedule: Q04DX002 (ip), vehicle: saline with Tween-80 93 % of control
